Laboratory results: patent publication US20150289512A1, “METHOD FOR PROMOTING PLANT GROWTH” (SUMITOMO CHEMICAL COMPANY, LIMITED, priority 2012, published 2015)

What was measured:
Type in all cases: in vivo
[1] = system: Rice (variety: Nipponbare); assay: Test Example 1: promotion of root growth by hydroponics of rice, 10 ppm; details: hydroponic solution containing the test compound at 10 ppm, average of 4 or 5 individuals
How it was run: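 Surface-sterilised seeds germinated 3 days in the dark at 28° C in hydroponic solution with compound at 10 ppm, then grown 3 days hydroponically with compound at 10 ppm (26° C, 4,000 lux, 16 h day, 50% humidity). Seminal root length measured by image analysis, averaged over 4 or 5 plants per plot.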

[2] = system: Corn seeds (variety: Pioneer 120 31P41); assay: Test Example 14: growth promotion under low-temperature stress by soil drench treatment of corn; details: soil drench 20 ml, low-temperature stress 5 days at 2.5° C., health score 0-5, average of 4 individuals
Procedure: Test for Evaluating Growth Promotion Under Low-Temperature Stress by Soil Drench Treatment of Corn
Corn seeds (variety: Pioneer 120 31P41) were seeded in a culture soil (Aisai) in a plastic pot (φ55 mm×height of 58 mm), and cultivated for 7 days at 20-25° C., an illuminance of about 5,000 lux, and a day length of 16 hours.
A DMSO solution, which contained one of the compounds 1 to 9, 16, 17, 20, 23, 24, 28 to 32, 34, 45, 48, 50, 82 and 85 of the present invention at a concentration of 1,000-fold concentration of each test concentration, was prepared, and then diluted with distilled water to obtain each test solution. After that, 20 ml of the obtained test solution was used to perform soil drench treatment on the foot of the test plants. The test plants were cultivated for 2 days under the conditions of a temperature of 27° C., a humidity of 40-80%, an illuminance of about 5,000 lux, and a day length of 16 hours. This was used as a test plot treated with the compound. A plot having undergone the soil drench treatment with 20 ml of a 0.1% DMSO aqueous solution instead of the above DMSO solution containing the compound was used as an untreated control plot.
The plants having undergone the soil drench treatment were cultivated for 5 days under the conditions of a temperature of 2.5° C., a humidity of 40-80%, an illuminance of about 5,000 lux, and a day length of 16 hours, thereby exposing to low-temperature stress. After the exposure to the low-temperature stress, the plants were cultivated for 4 days under the conditions of a temperature of 27° C., a humidity of 40-80%, an illuminance of about 5,000 lux, and a day length of 16 hours.
After the cultivation, the health of each plant was scored according to the following evaluation index.
5: 4 or more leaves in which ⅔ or more of the area was healthy
4: 3 leaves in which ⅔ or more of the area was healthy
3: 2 leaves in which ⅔ or more of the area was healthy
2: 1 leaf in which ⅔ or more of the area was healthy
1: No leaf in which ⅔ or more of the area was healthy
An average of the scores of the health of 4 individuals was determined.

[3] = system: Nicotiana benthamiana; assay: Test Example 5: growth promotion under low-temperature stress by hydroponics of Nicotiana benthamiana, 1 ppm; details: 1 ppm in medium, low-temperature stress 7 days at 1.5±1.0° C., green leaf area 3 days later, equation (1)
Procedure: (§1) Test for Evaluating Growth Promotion Under Low-Temperature Stress by Hydroponics of Nicotiana benthamiana
A DMSO solution, which contained one of the compounds 2, 4, 5, 6, 11, 12, 17, 20, 21, 28, 30, 34, 36, 37, 51, 52, 53, 55, 56, 58, 59, 60, 64, 65, 66, 68, 69, 70, 74, 77, 82, 83, 84, 86 and 87 of the present invention at a concentration of 1,000 ppm, was prepared. The DMSO solution of the compound of the present invention was added at a volume ratio of 1/1,000 to the Murashige•Scoog medium of a ½-fold concentration (a medium containing 2.3 g of mixed salts for the Murashige•Scoog medium (manufactured by Wako Pure Chemical Industries, Ltd.), 200 mg of Myo-inositol (manufactured by Sigma-Aldrich Co. LLC.), 2 mg of nicotinic acid (manufactured by Wako Pure Chemical Industries, Ltd.), 2 mg of pyridoxine hydrochloride (manufactured by Wako Pure Chemical Industries, Ltd.), 20 mg of thiamine hydrochloride (manufactured by Wako Pure Chemical Industries, Ltd.), 20 g of sucrose (manufactured by Wako Pure Chemical Industries, Ltd.), and 1 g of MES (manufactured by DOJINDO LABORATORIES) per 1 L of water and having pH adjusted to 5.8), thereby preparing a medium containing the compound of the present invention at a concentration of 1 ppm.
(§2) Seeds of Nicotiana benthamiana were seeded in the 5 μL of the medium and cultured overnight at 22° C. Thereafter, 45 μL of the medium containing the compound of the present invention at a concentration of 1 ppm was added thereto, and the seeds are cultured for 7 days at 22° C., an illuminance of 4,000 lux, and a day length of 16 hours, and the nursery plants raised from the Nicotiana benthamiana were treated with the compound. Moreover, instead of the above medium, a test plot, which was obtained by performing the same treatment by using a medium prepared by adding DMSO to the Murashige•Scoog medium of ½-fold concentration at a volume ratio of 1/1,000, was used as a control plot not treated with the compound.
(§3) The nursery plants of the Nicotiana benthamiana treated with the compound were subjected to low-temperature treatment by being cultivated for 7 days at 1.5±1.0° C., an illuminance of 2,000 lux, and a day length of 16 hours.
The nursery plants of the Nicotiana benthamiana having undergone the low-temperature stress treatment were cultured for 3 days at 22° C., an illuminance of 4,000 lux, and a day length of 16 hours. Thereafter, the area of green leaf was quantified by Scanalyzer HTS (manufactured by LemnaTec GmbH). Moreover, the value of the control plot not treated with the compound that had not yet been subjected to the low-temperature stress treatment was measured in the same manner. A value of a relative leaf area was calculated based on the following equation (1), and if the value of a relative leaf area was 5 or greater, the compound was evaluated to have a mitigating effect. As a result of the evaluation, it was confirmed that when the plant was treated with one of the compounds 2, 4, 5, 6, 11, 12, 17, 20, 21, 28, 30, 34, 36, 37, 51, 52, 53, 55, 56, 58, 59, 60, 64, 65, 66, 68, 69, 70, 74, 77, 82, 83, 84, 86 and 87 of the present invention at 1 ppm, the value of a relative leaf area was 5 or greater, compared to the area of green leaf of the control plot not treated with compound. Accordingly, it was confirmed that the treatment using the compound of the present invention brings about a growth promotion effect.
Relative leaf area=100*(a green area of a plot treated with the compound of the present invention−a green area of a control plot not treated with the compound of the present invention)/(a green area of a control plot not treated with the compound of the present invention that has not yet been subjected to low-temperature stress treatment−a green area of a control plot not treated with the compound of the present invention) Equation (1): […]

[4] = system: Nicotiana benthamiana; assay: Test Example 6: growth promotion under low-temperature stress by hydroponics of Nicotiana benthamiana, 0.1 ppm; details: 0.1 ppm in medium, low-temperature stress 7 days at 1.5±1.0° C., green leaf area 3 days later, equation (1)
Procedure: as §1
A DMSO solution, which contained one of the compounds 3, 7, 14, 16, 36, 39, 43, 45, 50, 52, 53, 54, 56, 57, 62, 63, 64, 65, 68, 69, 70, 71, 73, 74, 76, 77, 79, 80, 81, 84, 85, 86 and 87 of the present invention at a concentration of 100 ppm, was prepared. The DMSO solution of the compound of the present invention was added at a volume ratio of 1/1,000 to the Murashige•Scoog medium of a ½-fold concentration for the Murashige•Scoog medium (a medium containing 2.3 g of mixed salts (manufactured by Wako Pure Chemical Industries, Ltd.), 200 mg of Myo-inositol (manufactured by Sigma-Aldrich Co. LLC.), 2 mg of nicotinic acid (manufactured by Wako Pure Chemical Industries, Ltd.), 2 mg of pyridoxine hydrochloride (manufactured by Wako Pure Chemical Industries, Ltd.), 20 mg of thiamine hydrochloride (manufactured by Wako Pure Chemical Industries, Ltd.), 20 g of sucrose (manufactured by Wako Pure Chemical Industries, Ltd.), and 1 g of MES (manufactured by DOJINDO LABORATORIES) per 1 L of water and having pH adjusted to 5.8), thereby preparing a medium containing the compound of the present invention at a concentration of 0.1 ppm.
as §2, with “concentration of 0.1 ppm was” for “concentration of 1 ppm was”, “seeds are cultivated for 7” for “seeds are cultured for 7”, “the above medium a test” for “the above medium, a test”
as §3
The nursery plants of the Nicotiana benthamiana having undergone the low-temperature stress treatment were cultivated for 3 days at 22° C., an illuminance of 4,000 lux, and a day length of 16 hours. Thereafter, the area of green leaf was quantified by Scanalyzer HTS (manufactured by LemnaTec GmbH). Moreover, the value of the control plot not treated with the compound that had not yet been subjected to the low-temperature stress treatment was measured in the same manner. A value of a relative leaf area was calculated based on the following equation (1), and if the value of a relative leaf area was 5 or greater, the compound was evaluated to have a mitigating effect. As a result of the evaluation, it was confirmed that when the plant was treated with one of the compounds 3, 7, 14, 16, 36, 39, 43, 45, 50, 52, 53, 54, 56, 57, 62, 63, 64, 65, 68, 69, 70, 71, 73, 74, 76, 77, 79, 80, 81, 84, 85, 86 and 87 of the present invention at 0.1 ppm, the value of a relative leaf area was 5 or greater, compared to the area of green leaf of the control plot not treated with compound. Accordingly, it was confirmed that the treatment using the compound of the present invention brings about a growth promotion effect.
Relative leaf area=100*(a green area of a plot treated with the compound of the present invention−a green area of a control plot not treated with the compound of the present invention)/(a green area of a control plot not treated with the compound of the present invention that has not yet been subjected to low-temperature stress treatment−green area of a control plot not treated with the compound of the present invention) Equation (1): […]

CCOC(=O)c1cc2cc(C(F)(F)F)ccc2[nH]1 [Compound 9]
Relative value of length of seminal root (%-untreated control plot) [1]: >5% | Relative value of score (%- untreated control plot) ([2]; concentration tested 3 ppm): >5%

CCOC(=O)c1nc2ccccc2s1 [Compound 31]
Relative value of score (%- untreated control plot) ([2]; concentration tested 0.3 ppm): >5%

COC(=O)c1nc2c(F)cc(F)cc2s1 [Compound 87]
relative leaf area (% of untreated control) at 1 ppm [3]: ≥ 5% | relative leaf area (% of untreated control) at 0.1 ppm [4]: ≥ 5%

COC(=O)c1nc2cc(C(F)(F)F)ccc2n1C [Compound 24, methyl 1-methyl-5-trifluoromethylbenzimidazole-2-carboxylate]
change in vivo at 10 ppm ([2]; Zea mays, 120 h, concentration tested 10 ppm, read-out: Relative value of score (%- untreated control plot)): > 5%

CCOC(=O)c1oc2ccccc2c1C(F)(F)F [Compound 84]
change in vivo at 10 ppm ([1]; Oryza sativa, read-out: Relative value of length of seminal root (%-untreated control plot)): > 5% | relative leaf area (% of untreated control) at 1 ppm [3]: ≥ 5% | relative leaf area (% of untreated control) at 0.1 ppm [4]: ≥ 5%

COC(=O)c1nc2ccccc2n1C [Compound 23]
Relative value of length of seminal root (%-untreated control plot) [1]: >5% | Relative value of score (%- untreated control plot) ([2]; concentration tested 10 ppm): >5%

O=C(O)c1nc2ccccc2s1 [Compound 32]
Relative value of length of seminal root (%-untreated control plot) [1]: >5% | Relative value of score (%- untreated control plot) ([2]; concentration tested 0.3 ppm): >5%
